{
  "source": "paper PMC10327491",
  "about": "(Nature microbiology, 2022)",
  "molecular_target": "T1, BtSULT (Bacteroides thetaiotaomicron, UniProt Q8AAP8)",
  "T1 sequence (Q8AAP8 1-368)": "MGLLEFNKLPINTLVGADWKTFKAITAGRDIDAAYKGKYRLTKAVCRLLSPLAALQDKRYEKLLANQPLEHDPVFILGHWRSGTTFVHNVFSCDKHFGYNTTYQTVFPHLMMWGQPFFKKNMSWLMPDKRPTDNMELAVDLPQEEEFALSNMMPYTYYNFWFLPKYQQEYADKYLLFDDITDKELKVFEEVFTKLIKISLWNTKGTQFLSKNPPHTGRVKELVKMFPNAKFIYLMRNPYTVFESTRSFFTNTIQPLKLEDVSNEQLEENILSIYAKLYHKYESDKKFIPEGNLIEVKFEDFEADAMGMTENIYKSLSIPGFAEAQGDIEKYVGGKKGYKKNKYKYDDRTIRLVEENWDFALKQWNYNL",
  "test": "UPLC-MS of cholesterol sulfate formation",
  "format": "biochemical",
  "settings": "100 uM PAPS, 50 uM cholesterol acceptor, pH 7, 37 °C; sulfonate donor",
  "data": [
    {"compound": "Nc1ncnc2c1ncn2[C@@H]1O[C@H](COP(=O)(O)OS(=O)(=O)O)[C@@H](OP(=O)(O)O)[C@H]1O", "note": "[adenosine 3'-phosphate-5'-phosphosulfate]", "values": [
      {"measurement": "UPLC-MS of cholesterol sulfate formation", "value": "BtSULT encodes a sulfotransferase that utilizes PAPS to sulfonate Ch"}
    ]}
  ]
}
